The structures appear in SMILES notation. “Also recorded” adds a separate entry of the source. Like-named read-outs stand apart in the source and are kept apart here.

For data set [1], the target named is benzodiazepine binding site (BDZ-bs) of the GABAA receptor. The following applies: read-out: Ki for the BDZ-bs of the GABAA receptor; cited from earlier work.
For data set [2], the system named is rats. To be noted: cited from earlier work.
The subject of data set [3] is mice. Description: Spontaneous locomotor activity. The data set is classed as in vivo. To be noted: 5 min counts.
Data set [4] addresses T1, μ-opioid receptor (Rattus norvegicus, UniProt P33535). Description: [3H]-DAMGO radioligand binding assay. To be noted: for inhibition at 300 µM: read-out: μ-opioid Binding inhibition (%) [300 μM].
The test system of data set [5] is hMAO B. To be noted: read-out: IC50 hMAO B; cited from earlier work.
In data set [6] the target is T1, μ-opioid receptor. The following applies: read-out: μ-opioid Ki; [3H]-DAMGO, rat forebrain membranes; cited from earlier work.
A short description of data set [7]: PAMPA-BBB permeability assay. The data set is classed as in vitro ADME. To be noted: for Papp at 16 h, 50 µM: PAMPA, pH 7.4; for BBB penetration estimation Prediction: PAMPA-BBB binning by -logPe.
Data set [8] deals with BDZ-bs of the GABAA receptor. Description: [3H]-FNZ radioligand binding assay. The following applies: [3H]-FNZ displacement, compound at 300 μM, rat cerebral cortex membranes.
A short description of data set [9]: Cell viability assay. The class given is cell-based, human. To be noted: human, SH-SY5Y cells.
In data set [10] the test system is SH-SY5Y cells. Description: Cell viability assay. The class given is cell-based, human. The following applies: 48 h, SH-SY5Y.
Data set [11] has as its system hMAO A. To be noted: cited from earlier work.
Data set [12] addresses T2, 5-HT1A receptor (Rattus norvegicus, UniProt P19327).
T2 sequence (P19327 1-422): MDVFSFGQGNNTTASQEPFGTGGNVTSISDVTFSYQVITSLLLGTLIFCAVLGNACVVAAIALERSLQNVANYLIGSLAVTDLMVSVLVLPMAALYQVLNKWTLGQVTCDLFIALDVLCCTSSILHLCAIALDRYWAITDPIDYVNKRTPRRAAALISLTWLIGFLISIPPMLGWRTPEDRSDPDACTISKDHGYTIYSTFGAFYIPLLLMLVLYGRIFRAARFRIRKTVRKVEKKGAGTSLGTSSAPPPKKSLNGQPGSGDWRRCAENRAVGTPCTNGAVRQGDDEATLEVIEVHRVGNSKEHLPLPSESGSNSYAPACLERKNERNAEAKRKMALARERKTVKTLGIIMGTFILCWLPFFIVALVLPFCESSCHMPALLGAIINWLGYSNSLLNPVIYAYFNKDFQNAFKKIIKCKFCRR
Description: [3H]-8-OH-DPAT radioligand binding assay. To be noted: for inhibition at 300 µM: read-out: 5-HT1A Binding Inhibition (%) [300 μM].

Data set [13] relates to mice. Description: Tail suspension test. The data set is classed as in vivo. The following applies: 30 min before.
The test system of data set [14] is mice. To be noted: cited from earlier work.
For data set [15], the system named is mice. To be noted: cited from earlier work. The source holds these as a separate data set.
Data set [16] relates to mice. Description: Rotarod. The data set is classed as in vivo. To be noted: 30 mg/kg i.p., cut-off 120 s. Background: Falling from the rotarod earlier than controls is read as motor impairment.
Data set [17] relates to mice. Description: Hot plate test. The class given is in vivo. The following applies: 30 mg/kg i.p., plate 52.5 °C.
Data set [18] deals with mice. Description: Acetic acid induced writhing test. The data set is classed as in vivo. Background: Writhing tests count abdominal constrictions after an irritant is injected.

T1 sequence (P33535 whole entry): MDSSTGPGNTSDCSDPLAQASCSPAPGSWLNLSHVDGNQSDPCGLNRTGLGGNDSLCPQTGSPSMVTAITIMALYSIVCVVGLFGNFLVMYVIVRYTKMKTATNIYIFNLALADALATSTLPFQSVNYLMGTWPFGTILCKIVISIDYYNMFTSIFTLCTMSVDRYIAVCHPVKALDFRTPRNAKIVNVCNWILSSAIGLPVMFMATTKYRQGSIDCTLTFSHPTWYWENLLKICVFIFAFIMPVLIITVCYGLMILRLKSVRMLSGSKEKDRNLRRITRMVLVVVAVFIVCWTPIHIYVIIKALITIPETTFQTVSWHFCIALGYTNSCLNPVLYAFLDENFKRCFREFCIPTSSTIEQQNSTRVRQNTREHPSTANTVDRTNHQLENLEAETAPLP

Consider `O=C(/C=C/c1ccc(O)cc1)c1ccc(O)cc1O` [isoliquiritigenin, 2′,4′,4-trihydroxychalcone], for which the inhibitory constant (Ki) (in general, a dissociation constant, usually derived from enzyme kinetics or from competition with a known ligand) in data set [1] was 0.45 µM. Besides, the “effect in the plus-maze test” value in data set [2] is listed as “anxiolytic-like effect”.

With `O=C(/C=C/c1ccccc1)c1ccccc1` [Compound 1, Chalcone], in data set [3] (30 mg/kg i.p.), the “spontaneous locomotor activity vs VEH” value is “significant increase”. The inhibition at 300 µM in data set [4] and in data set [12] was 60 to 90% throughout. Besides, in data set [5], the half-inhibitory concentration (IC50) – broadly, the concentration that gives 50% inhibition – was 1.41 ± 0.07 µM. Besides, the Ki in data set [6] was 28.2 ± 9.9 µM; in [12], 20.8 ± 1.5 µM. For the same molecule, in [7], the apparent permeability (Papp) (commonly the rate of passage across a membrane or cell layer, normalised by area and donor concentration) at 16 h, 50 µM was 26.3 ×10⁻⁶ cm/s. Further, in data set [7], the “BBB penetration estimation Prediction” value is listed as “CNS+ (CNS+, -logPe < 5.6, high permeability)”. For the same molecule, the “BDZ-bs Binding inhibition (%) [300 μM]” value in data set [8] is “++++ (inhibition >90% (++++))”. In addition, in data set [9], the viability – broadly, a per cent measure of how many cells are alive, often set against a control – at 48 h, 20 µM came to 95.9%. Moreover, the “concentration up to which cell viability was not affected” value in [10] was found to be 75 µM. Also, in data set [11], the “effect on hMAO A” value was “no effect”. The “immobility time vs VEH” value in [13] (10 mg/kg i.p.) and in [13] (30 mg/kg i.p.) was “significantly reduced” throughout.

As to `O=C(/C=C/c1cccc(Br)c1)c1ccc(O)cc1O` [3-bromo-2′,4′-dihydroxychalcone], the “lethality in the yohimbine-induced mortality test” value in [14] is on record as “enhanced the mouse lethality”. Also, the “head-twitches in the 5-HT induced head-twitch test” value in data set [15] is given as “significantly increased head-twitches”.

Turning to `Cc1cc(C(=O)/C=C/c2ccccc2)c(O)c([N+](=O)[O-])c1` [Compound 12, (2E)-1-(5-methyl-3-nitro-2-hydroxyphenyl)-3-phenyl-2-propen-1-one], in data set [3] (10 and 30 mg/kg i.p.), the “spontaneous locomotor activity vs VEH” value is recorded as “None of the mice treated with chalcone 12 showed any failure in their locomotion”. Also, the “balance on the Rotarod” value in data set [16] is given as “did not produce neurotoxicity or motor impairment”. Moreover, the inhibition (commonly the drop in the measured response relative to a control, in per cent) at 300 µM in [4] is greater than 90%; in [12], less than 20%. In [4] (μ-opioid Ki, [3H]-DAMGO, rat forebrain membranes, Ki ± SEM, 2 determinations), this molecule returned an inhibition constant (Ki) of 10.8 ± 3.6 µM. The “reaction (latency) time against thermal stimulus vs VEH” value in data set [17] was “significant increases; also recorded: significantly increased”. In addition, the apparent permeability (Papp) at 16 h, 50 µM in [7] is 33.9 ×10⁻⁶ cm/s. Also, the “BBB penetration estimation Prediction” value in [7] is on record as “CNS+ (CNS+, -logPe < 5.6, high permeability)”. Besides, the “BDZ-bs Binding inhibition (%) [300 μM]” value in [8] was “+ (inhibition 20–40% (+))”. In [9], the viability at 48 h, 20 µM is 74.8%. In addition, the “inhibition of constrictions compared to VEH” value in data set [18] (3 mg/kg i.p.) turned out to be 59.7%; in data set [18] (10 mg/kg i.p.), 62.6%; in [18] (30 mg/kg i.p.) it was 96.1%. Besides, in [18] (10 mg/kg i.p., acetic acid 0.75%), the “number of writhes vs VEH” value is “significantly reduced”.
